Experimental data: patent US8067454B2, “Thio-substituted Anthra [1, 2-d] imidazole- 6, 11-dione derivatives, preparation method and application thereof” (National Defense Medical Center, priority 2010, dated 2011)

How the values were obtained:
COLO 205 = experiment: NCI 60-cell drug screen, Colon Cancer COLO 205; assay type: cell-based, human; details: 1.00E−5 Molar
NCI-H322M = experiment: NCI 60-cell drug screen, Non-Small Cell Lung Cancer NCI-H322M; assay type: cell-based, human; details: 1.00E−5 Molar
OVCAR-8 = experiment: NCI 60-cell drug screen, Ovarian Cancer OVCAR-8; assay type: cell-based, human; details: 1.00E−5 Molar
A549/ATCC = experiment: NCI 60-cell drug screen, Non-Small Cell Lung Cancer A549/ATCC; assay type: cell-based, human; details: 1.00E−5 Molar
PC-3 = experiment: NCI 60-cell drug screen, Prostate Cancer PC-3; assay type: cell-based, human; details: 1.00E−5 Molar
UO-31 = experiment: NCI 60-cell drug screen, Renal Cancer UO-31; assay type: cell-based, human; details: 1.00E−5 Molar
SR = experiment: NCI 60-cell drug screen, Leukemia SR; assay type: cell-based, human; details: 1.00E−5 Molar
SK-MEL-5 = experiment: NCI 60-cell drug screen, Melanoma SK-MEL-5; assay type: cell-based, human; details: 1.00E−5 Molar
SK-MEL-28 = experiment: NCI 60-cell drug screen, Melanoma SK-MEL-28; assay type: cell-based, human; details: 1.00E−5 Molar
HCT-15 = experiment: NCI 60-cell drug screen, Colon Cancer HCT-15; assay type: cell-based, human; details: 1.00E−5 Molar
HOP-92 = experiment: NCI 60-cell drug screen, Non-Small Cell Lung Cancer HOP-92; assay type: cell-based, human; details: 1.00E−5 Molar
SK-OV-3 = experiment: NCI 60-cell drug screen, Ovarian Cancer SK-OV-3; assay type: cell-based, human; details: 1.00E−5 Molar
U251 = experiment: NCI 60-cell drug screen, CNS Cancer U251; assay type: cell-based, human; details: 1.00E−5 Molar
SF-295 = experiment: NCI 60-cell drug screen, CNS Cancer SF-295; assay type: cell-based, human; details: 1.00E−5 Molar
IGROV1 = experiment: NCI 60-cell drug screen, Ovarian Cancer IGROV1; assay type: cell-based, human; details: 1.00E−5 Molar
OVCAR-4 = experiment: NCI 60-cell drug screen, Ovarian Cancer OVCAR-4; assay type: cell-based, human; details: 1.00E−5 Molar
UACC-257 = experiment: NCI 60-cell drug screen, Melanoma UACC-257; assay type: cell-based, human; details: 1.00E−5 Molar
M14 = experiment: NCI 60-cell drug screen, Melanoma M14; assay type: cell-based, human; details: 1.00E−5 Molar
HOP-62 = experiment: NCI 60-cell drug screen, Non-Small Cell Lung Cancer HOP-62; assay type: cell-based, human; details: 1.00E−5 Molar
MDA-MB-231/ATCC = experiment: NCI 60-cell drug screen, Breast Cancer MDA-MB-231/ATCC; assay type: cell-based, human; details: 1.00E−5 Molar
SN12C = experiment: NCI 60-cell drug screen, Renal Cancer SN12C; assay type: cell-based, human; details: 1.00E−5 Molar
SVG p12 = experiment: MTT assay, SVG p12 normal cell; details: concentration 10 μM, normal cell
NCI/ADR-RES = experiment: NCI 60-cell drug screen, Ovarian Cancer NCI/ADR-RES; assay type: cell-based, human; details: 1.00E−5 Molar
Protocol: In brief, cellular protein levels were determined after 48 hours of drug exposure by sulforhodamine B colorimetry. Through the use of a time 0 cell control, the cell growth can be determined for each cell line thus allowing calculations of the 50% growth inhibitory concentration (GI50), the total growth inhibition (TGI), and the 50% lethal concentration (LC50). Comparison to plates not exposed to drug permits determination of concentration and times of exposure conferring 50% net growth inhibition (GI50), TGI, and 50% cell kill (LC50).
From the data analysis it follows that approximately 95% of the actives (potent anticancer drugs) from the 60 cell line screen can be identified. By these criteria, 6 compounds (each with its certification number, refer to Table 2) of the invention were reported that having anticancer activity.
The screening system in United State National Cancer Institute (NCI) consists of 60 kinds of different human cancer cells, which can be used to assay the growth-inhibiting ability or cell toxicity of a compound against various cancer and tumor at a certain concentration.
NCI had selected 6 compounds f1-0, f1-1, f3-1, f1-11, f1-2 and f1-15 as test compounds (Table 2). Among these compounds, compound f1-1 was effective against renal cancer cell strain CAKI-1, and could achieve an inhibition effect on the growth of said cancer cell up to −8.01. Compound f1-11 could achieve inhibiting effects against leukemia cell line CCRF-CEM and RPMI-8226, up to −15.39 and −60.17, respectively. Compound f1-2 was effective against central nervous system cancer cell line SNB-75, and could achieve an effect of inhibiting said cancer cell growth up to −9.55. Compound f1-15 was effective against leukemia (blood cancer) cell line K-562, MOLT-4, and RPMI-8226, and could achieve effects of inhibiting said cancer cells growth up to −31.59, −2.90 and −13.69, respectively. Further, compound f1-15 was effective also against renal cancer cell line CAKI-1, and could achieve an effect of inhibiting said cancer cell growth up to −14.89.

GBM8901 = experiment: MTT assay, GBM8901 tumor cell; details: concentration 10 μM, tumor cell
786-0 = experiment: NCI 60-cell drug screen, Renal Cancer 786-0; assay type: cell-based, human; details: 1.00E−5 Molar
SF-539 = experiment: NCI 60-cell drug screen, CNS Cancer SF-539; assay type: cell-based, human; details: 1.00E−5 Molar
HCT-116 = experiment: NCI 60-cell drug screen, Colon Cancer HCT-116; assay type: cell-based, human; details: 1.00E−5 Molar
SNB-75 = experiment: NCI 60-cell drug screen, CNS Cancer SNB-75; assay type: cell-based, human; details: 1.00E−5 Molar
HCC-2998 = experiment: NCI 60-cell drug screen, Colon Cancer HCC-2998; assay type: cell-based, human; details: 1.00E−5 Molar
LOX IMVI = experiment: NCI 60-cell drug screen, Melanoma LOX IMVI; assay type: cell-based, human; details: 1.00E−5 Molar
BT-549 = experiment: NCI 60-cell drug screen, Breast Cancer BT-549; assay type: cell-based, human; details: 1.00E−5 Molar
HL-60(TB) = experiment: NCI 60-cell drug screen, Leukemia HL-60(TB); assay type: cell-based, human; details: 1.00E−5 Molar
GBM8401 = experiment: MTT assay, GBM8401 tumor cell; details: concentration 10 μM, tumor cell
MOLT-4 = experiment: NCI 60-cell drug screen, Leukemia MOLT-4; assay type: cell-based, human; details: 1.00E−5 Molar
ACHN = experiment: NCI 60-cell drug screen, Renal Cancer ACHN; assay type: cell-based, human; details: 1.00E−5 Molar
[1] = tested on: 60 kinds of different human cancer cells; experiment: NCI 60-cell drug screen, whole panel (One Dose Mean Graph); assay type: cell-based; details: mean over the cell lines of the panel; 1.00E−5 Molar
A498 = experiment: NCI 60-cell drug screen, Renal Cancer A498; assay type: cell-based, human; details: 1.00E−5 Molar
NCI-H522 = experiment: NCI 60-cell drug screen, Non-Small Cell Lung Cancer NCI-H522; assay type: cell-based, human; details: 1.00E−5 Molar

Structure (SMILES) | Growth Percent, COLO 205 (COLO 205) [%] | Growth Percent, NCI-H322M (NCI-H322M) [%] | Growth Percent, OVCAR-8 (OVCAR-8) [%] | Growth Percent, A549/ATCC (A549/ATCC) [%] | Growth Percent, PC-3 (PC-3) [%] | Growth Percent, UO-31 (UO-31) [%] | Growth Percent, SR (SR) [%] | Growth Percent, SK-MEL-5 (SK-MEL-5) [%] | Growth Percent, SK-MEL-28 (SK-MEL-28) [%] | Growth Percent, HCT-15 (HCT-15) [%] | Growth Percent, HOP-92 (HOP-92) [%] | Growth Percent, SK-OV-3 (SK-OV-3) [%] | Growth Percent, U251 (U251) [%] | Growth Percent, SF-295 (SF-295) [%] | Growth Percent, IGROV1 (IGROV1) [%] | Growth Percent, OVCAR-4 (OVCAR-4) [%] | Growth Percent, UACC-257 (UACC-257) [%] | Growth Percent, M14 (M14) [%] | Growth Percent, HOP-62 (HOP-62) [%] | Growth Percent, MDA-MB-231/ATCC (MDA-MB-231/ATCC) [%] | also measured
O=C1c2ccccc2C(=O)c2c1ccc1nc(S)[nH]c21 [f1-0, 2-Mercapto-1(3)H-anthra[1,2-d]imidazole-6,11-dione] | 103.96 | 96.31 | 139.75 | 118.18 | 78.80 | 97.83 | 124.87 | 86.66 | 118.39 | 83.78 | 65.48 | 103.17 | 88.79 | 118.09 | 138.25 | 91.57 | 105.26 | 101.06 | 96.74 | 108.18 | Growth Percent, SN12C (SN12C): 87.98%; Cell survival rate (%) SVG p12 (SVG p12): 82 ± 5%; Growth Percent, NCI/ADR-RES (NCI/ADR-RES): 109.60%; Cell survival rate (%) GBM8901 (GBM8901): 78 ± 13%; Growth Percent, 786-0 (786-0): 95.78%; Growth Percent, SF-539 (SF-539): 91.35%; Growth Percent, HCT-116 (HCT-116): 96.31%; Growth Percent, SNB-75 (SNB-75): 100.90%; Growth Percent, HCC-2998 (HCC-2998): 113.65%; Growth Percent, LOX IMVI (LOX IMVI): 84.00%; Growth Percent, BT-549 (BT-549): 114.30%; Growth Percent, HL-60(TB) (HL-60(TB)): 97.58%; Cell survival rate (%) GBM8401 (GBM8401): 86 ± 25%; Growth Percent, MOLT-4 (MOLT-4): 108.60%; Growth Percent, ACHN (ACHN): 96.23%; Growth Percent, Mean [1]: 99.72%; Growth Percent, A498 (A498): 94.31%; Growth Percent, NCI-H522 (NCI-H522): 96.06%
CCSc1nc2ccc3c(c2[nH]1)C(=O)c1ccccc1C3=O [f1-1, 2-(Ethylthio)-1H-anthra[1,2-d]imidazole-6,11-dione] | 71.84 | 33.44 | 96.82 | 100.94 | 53.79 | 49.19 | 129.31 | 63.93 | 97.72 | 32.29 | 75.35 | 24.72 | 65.03 | 100.85 | 73.41 | 55.05 | 111.80 | 67.07 | 96.59 | 84.79 | Growth Percent, SN12C (SN12C): 67.91%; Cell survival rate (%) SVG p12 (SVG p12): 98 ± 8%; Growth Percent, NCI/ADR-RES (NCI/ADR-RES): 85.72%; Cell survival rate (%) GBM8901 (GBM8901): 58 ± 7%; Growth Percent, 786-0 (786-0): 85.38%; Growth Percent, SF-539 (SF-539): 58.58%; Growth Percent, HCT-116 (HCT-116): 68.78%; Growth Percent, SNB-75 (SNB-75): 73.34%; Growth Percent, HCC-2998 (HCC-2998): 89.42%; Growth Percent, LOX IMVI (LOX IMVI): 36.72%; Growth Percent, BT-549 (BT-549): 55.80%; Growth Percent, HL-60(TB) (HL-60(TB)): 62.64%; Cell survival rate (%) GBM8401 (GBM8401): 42 ± 20%; Growth Percent, MOLT-4 (MOLT-4): 100.70%; Growth Percent, ACHN (ACHN): 37.57%; Growth Percent, Mean [1]: 67.96%; Growth Percent, A498 (A498): 75.49%; Growth Percent, NCI-H522 (NCI-H522): 78.60%
